Experimental data published in patent US11780893B2, “Kv1.3 blockers” (Zealand Pharma A/S, priority 2019, dated 2023).
Bridge positions count the residues as written; N and C are the ends. Square brackets hold non-standard residues; d marks the D form. Peptide text beside a SMILES is read from it. Nle = CCCC[C@H](N)C(=O)O

Key:
[1] = molecular target: T1, human Kv1.3 voltage-gated K+ channel (Homo sapiens, UniProt P22001); experiment: cell-based; details: inhibition of thallium flux, CHO-DUKX cells with human Kv1.3; read-out: IC50
T1 construct: host or cells: CHO-DUKX

Kv1.1 = molecular target: T2, Kv1.1 (Homo sapiens, UniProt Q09470); experiment: cell-based; details: for IC50: CHO cells, whole-cell patch clamp, read-out: Potency IC50 (nM) Kv1.1; for Selectivity Kv1.1/Kv1.3: ratio IC50[Kv1.1]/IC50[Kv1.3]
T2 construct: expressed in transfected cells; host or cells: Chinese Hamster Ovary (CHO)

Kv1.2 = molecular target: T3, Kv1.2 (Homo sapiens, UniProt P16389); experiment: cell-based; details: for IC50: CHO cells, whole-cell patch clamp, read-out: Potency IC50 (nM) Kv1.2
T3 construct: expressed in transfected cells; host or cells: Chinese Hamster Ovary (CHO)

Kv1.3 = molecular target: T4, Kv1.3 (Homo sapiens, UniProt P22001); experiment: cell-based; details: CHO cells, whole-cell patch clamp; read-out: Potency IC50 (nM) Kv1.3
T4 construct: expressed in transfected cells; host or cells: Chinese Hamster Ovary (CHO)

Kv1.6 = molecular target: T5, Kv1.6 (Homo sapiens, UniProt P17658); experiment: cell-based; details: for IC50: CHO cells, whole-cell patch clamp, read-out: Potency IC50 (nM) Kv1.6; for Selectivity Kv1.6/Kv1.3: ratio IC50[Kv1.6]/IC50[Kv1.3]
T5 construct: expressed in transfected cells; host or cells: Chinese Hamster Ovary (CHO)

[2] = system: Human peripheral blood mononuclear cells (PBMCs); experiment: IL-2 release from anti-CD3 stimulated human PBMCs (Example 4a); assay type: cell-based; details: geometric mean, at least 4 replicates, read-out: anti-CD3 PBMC/IL-2 IC50
Description: Human peripheral blood mononuclear cells (PBMCs) were used to assess the effects of Kv1.3 blockers on T-cell activation as determined by IL-2 (cytokine) release after stimulation with anti-CD3.
(§1) Human PBMCs were obtained from Precision for Medicine (Frederick, Md.). Cells from 5 donors were used. Plate-bound anti-CD3 was used to stimulate bulk T cells in the PBMC preparations. Briefly, 96-well plates were coated with anti-CD3 antibody for 2 hrs at 37° C., using 50 μL of a 0.5 μg/mL anti-CD3 solution diluted in 1×PBS. Thereafter the plates were washed twice.
(§2) Finally, 1×10^5 PBMCs were added to each well in a volume of 100 μL, giving a final volume of 200 μL per well. The plates were incubated for 20-24 hours in a 37° C./5% CO2 incubator. After centrifugation of the plates, 25 μl supernatant was transferred to IL-2 detection plates (MSD Human IL-2 Tissue Culture Kit, cat #K151AHB-2) and IL-2 was measures as described by the manufacturer (Meso Scale Discovery, Rockville, Md., USA).
Results are shown in Table 4a as geometric mean of IC50 values obtained from anti-CD3 stimulated human PBMC assays. All values derive from at least 4 replicates.

[3] = system: Human peripheral blood mononuclear cells (PBMCs); experiment: IL-2 release from anti-CD3 stimulated human PBMCs (Example 4b); assay type: cell-based; details: geometric mean, at least 6 replicates, read-out: anti-CD3 PBMC/IL-2 IC50
Description: Human peripheral blood mononuclear cells (PBMCs) were used to assess the effects of Kv1.3 blockers on T-cell activation as determined by IL-2 release after stimulation with anti-CD3.
as §1, with “app. 16 hours” for “2 hrs”, “5°” for “37°”, “μl” for “μL”, “1 μg/ml” for “0.5 μg/mL”, “PBS.” for “1×PBS.”
Kv1.3 blockers were subsequently diluted in medium (RPMI 1640 with Glutamax-I containing, 10% v/v Fetal Bovine Serum, 1% v/v penicillin-streptomycin Solution) and added in a volume of 50 μl. The compounds indicated in Table 4b were used at concentrations ranging from […] to 1000 nM (half log dilutions, starting concentrations varying).
as §2, with “50.000” for “1×10^5”, “PBMCs in the same medium” for “PBMCs”, “50 μl,” for “100 μL,”, “100 μl” for “200 μL”
Results are shown in Table 4b as geometric mean of IC50 values obtained from anti-CD3 stimulated human PBMC assays. All values derive from at least 6 replicates.

Rat whole blood = Rat whole blood (Rattus norvegicus, UniProt P15384)
Chain of Rat whole blood (P15384 whole entry): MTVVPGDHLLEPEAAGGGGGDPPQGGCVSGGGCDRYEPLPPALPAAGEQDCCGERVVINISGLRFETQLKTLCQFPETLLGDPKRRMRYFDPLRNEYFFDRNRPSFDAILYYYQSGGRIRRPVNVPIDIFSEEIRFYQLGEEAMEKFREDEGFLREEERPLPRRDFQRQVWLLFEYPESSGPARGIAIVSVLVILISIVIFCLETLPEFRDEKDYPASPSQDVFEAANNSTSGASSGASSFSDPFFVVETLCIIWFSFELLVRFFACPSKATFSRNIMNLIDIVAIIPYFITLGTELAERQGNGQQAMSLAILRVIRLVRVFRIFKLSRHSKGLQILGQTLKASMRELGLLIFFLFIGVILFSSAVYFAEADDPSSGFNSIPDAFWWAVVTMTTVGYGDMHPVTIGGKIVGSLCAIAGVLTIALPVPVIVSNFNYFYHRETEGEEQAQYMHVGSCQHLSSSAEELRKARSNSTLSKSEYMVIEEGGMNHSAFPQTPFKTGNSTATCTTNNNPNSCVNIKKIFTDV

T4 sequence (P22001 whole entry): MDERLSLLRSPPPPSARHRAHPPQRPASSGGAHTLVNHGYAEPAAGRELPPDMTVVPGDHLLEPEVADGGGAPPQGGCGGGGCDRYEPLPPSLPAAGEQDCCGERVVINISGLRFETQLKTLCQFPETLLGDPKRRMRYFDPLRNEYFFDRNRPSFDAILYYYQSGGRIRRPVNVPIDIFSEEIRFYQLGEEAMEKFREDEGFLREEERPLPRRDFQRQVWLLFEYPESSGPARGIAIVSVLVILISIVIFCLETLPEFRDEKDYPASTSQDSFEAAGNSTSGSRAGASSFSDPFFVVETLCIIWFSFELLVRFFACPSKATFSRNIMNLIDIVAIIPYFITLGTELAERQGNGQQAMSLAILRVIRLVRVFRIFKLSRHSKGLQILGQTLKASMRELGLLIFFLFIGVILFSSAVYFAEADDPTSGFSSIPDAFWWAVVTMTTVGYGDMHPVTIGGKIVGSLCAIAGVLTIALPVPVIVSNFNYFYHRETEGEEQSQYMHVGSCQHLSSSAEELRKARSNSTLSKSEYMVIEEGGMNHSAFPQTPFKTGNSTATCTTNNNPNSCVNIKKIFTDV
T1 sequence (P22001 whole entry): as above
T3 sequence (P16389 whole entry): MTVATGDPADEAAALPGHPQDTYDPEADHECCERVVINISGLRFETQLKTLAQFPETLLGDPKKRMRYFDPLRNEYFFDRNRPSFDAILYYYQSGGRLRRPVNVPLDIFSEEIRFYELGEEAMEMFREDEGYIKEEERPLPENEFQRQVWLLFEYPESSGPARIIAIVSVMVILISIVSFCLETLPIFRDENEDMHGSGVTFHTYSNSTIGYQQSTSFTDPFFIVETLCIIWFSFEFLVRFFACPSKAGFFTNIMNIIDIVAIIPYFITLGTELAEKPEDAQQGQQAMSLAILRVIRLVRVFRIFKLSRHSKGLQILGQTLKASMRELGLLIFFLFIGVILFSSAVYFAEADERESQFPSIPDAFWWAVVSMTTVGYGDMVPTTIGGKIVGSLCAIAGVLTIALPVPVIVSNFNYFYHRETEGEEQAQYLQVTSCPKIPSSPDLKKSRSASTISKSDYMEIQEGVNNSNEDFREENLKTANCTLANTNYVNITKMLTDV
T2 sequence (Q09470 whole entry): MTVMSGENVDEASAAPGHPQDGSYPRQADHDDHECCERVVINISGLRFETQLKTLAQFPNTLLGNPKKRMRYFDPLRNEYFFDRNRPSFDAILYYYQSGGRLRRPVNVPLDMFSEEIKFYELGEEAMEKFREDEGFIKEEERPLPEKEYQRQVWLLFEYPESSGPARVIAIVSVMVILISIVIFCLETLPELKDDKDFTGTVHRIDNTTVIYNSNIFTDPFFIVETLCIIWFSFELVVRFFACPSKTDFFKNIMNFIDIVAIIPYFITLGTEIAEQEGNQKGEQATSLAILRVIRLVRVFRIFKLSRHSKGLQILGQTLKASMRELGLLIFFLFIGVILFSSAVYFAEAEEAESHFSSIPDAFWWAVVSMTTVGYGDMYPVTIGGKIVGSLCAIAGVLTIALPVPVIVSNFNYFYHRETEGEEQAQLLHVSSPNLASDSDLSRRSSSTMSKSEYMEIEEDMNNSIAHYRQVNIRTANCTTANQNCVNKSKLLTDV
T5 sequence (P17658 whole entry): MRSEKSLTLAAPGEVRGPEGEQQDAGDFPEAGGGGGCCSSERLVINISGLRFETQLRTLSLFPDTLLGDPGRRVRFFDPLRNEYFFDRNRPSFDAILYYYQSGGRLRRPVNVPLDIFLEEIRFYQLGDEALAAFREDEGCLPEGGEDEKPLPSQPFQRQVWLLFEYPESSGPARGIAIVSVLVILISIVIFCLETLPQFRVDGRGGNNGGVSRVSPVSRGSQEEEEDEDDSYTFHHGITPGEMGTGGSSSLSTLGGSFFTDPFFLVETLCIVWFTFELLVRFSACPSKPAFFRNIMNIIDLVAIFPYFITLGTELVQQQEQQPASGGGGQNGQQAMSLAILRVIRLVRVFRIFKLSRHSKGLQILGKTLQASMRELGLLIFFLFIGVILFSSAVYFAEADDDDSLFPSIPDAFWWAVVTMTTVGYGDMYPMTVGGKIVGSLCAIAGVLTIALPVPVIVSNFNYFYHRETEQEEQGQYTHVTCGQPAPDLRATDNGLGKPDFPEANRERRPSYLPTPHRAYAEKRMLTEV

Row | Compound | IC50 [1] | IC50 (Kv1.1) | Selectivity Kv1.1/Kv1.3 (Kv1.1) | IC50 (Kv1.2) | IC50 (Kv1.3) | IC50 (Kv1.6) | IC50 [2] | Selectivity Kv1.6/Kv1.3 (Kv1.6) | IC50 [3] | IC50 (Rat whole blood) | Selectivity Kv1.2/Kv1.3 (Kv1.2; ratio IC50[Kv1.2]/IC50[Kv1.3])
1 | CC[C@H](C)[C@@H]1NC(=O)[C@H](C)NC(=O)[C@H](CCCCN)NC(=O)[C@H](CC(C)C)NC(=O)[C@@H]2CSSC[C@@H](C(=O)N[C@@H](Cc3ccc(O)cc3)C(=O)N3CCC[C@H]3C(=O)N[C@@H](CCCNC(=N)N)C(N)=O)NC(=O)[C@H](CCCCN)NC(=O)[C@@H]3CSSC[C@H](NC(=O)[C@H](CCC(=O)O)NC(=O)[C@H](C(C)C)NC(=O)[C@H](CO)NC(=O)[C@H](C)NC(=O)[C@H](CO)NC(=O)[C@@H](NC(=O)[C@H](CCCNC(=N)N)NC(=O)[C@H](CCSC)NC(=O)[C@H](CC(=O)O)NC(=O)[C@H](CCSC)NC(=O)[C@@H](N)CC(N)=O)CSSC[C@H](NC(=O)[C@H](CCCCN)NC(=O)CNC(=O)[C@H](Cc4ccccc4)NC(=O)[C@H](CCCNC(=N)N)NC(=O)[C@H](CO)NC(=O)CNC1=O)C(=O)N[C@@H](CCSC)C(=O)N[C@@H](CC(N)=O)C(=O)N[C@@H](CCCCN)C(=O)N[C@@H](CCCCN)C(=O)N3)C(=O)N[C@@H](CCCCN)C(=O)N[C@@H](CCC(N)=O)C(=O)N[C@@H](CCCCN)C(=O)N2 [Compound 35] (H-NMDMRCSASVECKQKCLKAIGSRFGKCMNKKCKCYPR-NH2; disulfide 6-27, 12-32, 16-34) | 0.077 nM | > 3000 nM | >15000 | 18 nM | 0.2 nM | 192 nM | 0.1 nM | – | – | – | –
2 | CC[C@H](C)[C@@H]1NC(=O)[C@H](C)NC(=O)[C@H](CCCCN)NC(=O)[C@H](CC(C)C)NC(=O)[C@@H]2CSSC[C@@H](C(=O)N[C@@H](Cc3ccc(O)cc3)C(=O)N3CCC[C@H]3C(=O)N[C@@H](CCCNC(=N)N)C(=O)O)NC(=O)[C@H](CCCCN)NC(=O)[C@@H]3CSSC[C@H](NC(=O)[C@H](CCC(=O)O)NC(=O)[C@H](C(C)C)NC(=O)[C@H](CO)NC(=O)[C@H](C)NC(=O)[C@H](CO)NC(=O)[C@@H](NC(=O)[C@H](CCCNC(=N)N)NC(=O)[C@H](CCSC)NC(=O)[C@H](CC(=O)O)NC(=O)[C@H](CCSC)NC(=O)[C@@H](N)CCC(N)=O)CSSC[C@H](NC(=O)[C@H](CCCCN)NC(=O)CNC(=O)[C@H](Cc4ccccc4)NC(=O)[C@H]([C@@H](C)CC)NC(=O)[C@H](CO)NC(=O)CNC1=O)C(=O)N[C@@H](CCSC)C(=O)N[C@@H](CC(N)=O)C(=O)N[C@@H](CCCCN)C(=O)N[C@@H](CCCCN)C(=O)N3)C(=O)N[C@@H](CCCCN)C(=O)N[C@@H](CCC(N)=O)C(=O)N[C@@H](CCCCN)C(=O)N2 [Compound 1] (H-QMDMRCSASVECKQKCLKAIGSIFGKCMNKKCKCYPR-OH; disulfide 6-27, 12-32, 16-34) | 0.24 nM | > 3000 nM | >7900 | 518 nM | 0.38 nM | > 3000 nM | – | >7900 | 0.09 nM | ≤ 1 nM | –
3 | H-NMDMRCSASVECKQKCLKAIGSIFGKCMNKKCKCYPRRRTA-NH2 (disulfide 6-27, 12-32, 16-34) [Compound 23] | 0.055 nM | 626 nM | – | 28 nM | 0.15 nM | 215 nM | – | – | 0.06 nM | ≤ 1 nM | –
4 | CCCC[C@@H]1NC(=O)[C@@H]2CSSC[C@H](NC(=O)[C@H](CCCNC(=N)N)NC(=O)[C@H](CCCC)NC(=O)[C@H](CC(=O)O)NC(=O)[C@H](CCCC)NC(=O)[C@@H](N)CC(N)=O)C(=O)N[C@@H](CO)C(=O)N[C@@H](C)C(=O)N[C@@H](CO)C(=O)N[C@@H](C(C)C)C(=O)N[C@@H](CCC(=O)O)C(=O)N[C@H]3CSSC[C@H](NC(=O)[C@H](CCCCN)NC(=O)[C@H](CCCCN)NC(=O)[C@H](CC(N)=O)NC1=O)C(=O)N[C@@H](CCCCN)C(=O)N[C@H](C(=O)N[C@@H](Cc1ccc(O)cc1)C(=O)N1CCC[C@H]1C(=O)N[C@@H](CCCNC(=N)N)C(N)=O)CSSC[C@H](NC(=O)[C@H](CO)NC(=O)[C@H](CCC(N)=O)NC(=O)[C@H](CCCCN)NC3=O)C(=O)N[C@@H](CC(C)C)C(=O)N[C@@H](CCCCN)C(=O)N[C@@H](C)C(=O)N[C@@H]([C@@H](C)CC)C(=O)NCC(=O)N[C@@H](CO)C(=O)N[C@@H]([C@@H](C)CC)C(=O)N[C@@H](Cc1ccccc1)C(=O)NCC(=O)N[C@@H](CCCCN)C(=O)N2 [Compound 48] (H-N[Nle]D[Nle]RCSASVECKQSCLKAIGSIFGKC[Nle]NKKCKCYPR-NH2; disulfide 6-27, 12-32, 16-34) | 0.14 nM | > 3000 nM | >8200 | > 3000 nM | 0.37 nM | > 3000 nM | – | >8200 | 0.07 nM | ≤ 1 nM | >8200
5 | CC[C@H](C)[C@@H]1NC(=O)[C@H](C)NC(=O)[C@H](CCCCN)NC(=O)[C@H](CC(C)C)NC(=O)[C@@H]2CSSC[C@@H](C(=O)N[C@@H](Cc3ccc(O)cc3)C(=O)N3CCC[C@H]3C(=O)N[C@@H](CCCNC(=N)N)C(N)=O)NC(=O)[C@H](CCCCN)NC(=O)[C@@H]3CSSC[C@H](NC(=O)[C@H](CCC(=O)O)NC(=O)[C@H](C(C)C)NC(=O)[C@H](CO)NC(=O)[C@H](C)NC(=O)[C@H](CO)NC(=O)[C@@H](NC(=O)[C@H](CCCNC(=N)N)NC(=O)[C@H](CCSC)NC(=O)[C@H](CC(=O)O)NC(=O)[C@H](CCSC)NC(=O)[C@@H](N)CC(N)=O)CSSC[C@H](NC(=O)[C@H](CCCCN)NC(=O)CNC(=O)[C@H](Cc4ccccc4)NC(=O)[C@H]([C@@H](C)CC)NC(=O)[C@H](CO)NC(=O)CNC1=O)C(=O)N[C@@H](CCSC)C(=O)N[C@@H](CC(N)=O)C(=O)N[C@@H](CCCCN)C(=O)N[C@@H](CCCCN)C(=O)N3)C(=O)N[C@@H](CCCCN)C(=O)N[C@@H](C(C)C)C(=O)N[C@@H](CCCCN)C(=O)N2 [Compound 17] (H-NMDMRCSASVECKVKCLKAIGSIFGKCMNKKCKCYPR-NH2; disulfide 6-27, 12-32, 16-34) | 0.14 nM | > 3000 nM | >7200 | 66 nM | 0.42 nM | 912 nM | 0.4 nM | – | – | ≤ 1 nM | –
